# Measurements taken from US20090214578A1, “Immunostimulatory Single-Stranded Ribonucleic Acid with Phosphodiester Backbone” (priority 2005, published 2009).
# Strand notation (5' to 3'): a small letter for the sugar, then the base; units joined by * are phosphorothioate-linked, units joined directly phosphodiester-linked; [ ] holds rarer units or linkages, { } end groups; capitals alone tell only the bases. r = 2'-OH (RNA)
# Experiments:
# [1] = test system: human PBMCs; experiment: Stimulatory capacity of ORN with PTO or PD backbone in human PBMCs; assay type: cell-based
# Description: (§1) To further investigate the role of TLR9 in the recognition of PD ssRNA, various RNA sequences, such as RNA41 (5′-[…]-3′; SEQ ID NO:4) and RNA42 (5′-[…]-3′; SEQ ID NO:5) that have been previously described as not active in murine cells when synthesized with a PTO backbone (Heil, Hemmi et al. 2004), were synthesized.
# [2] = test system: murine cells; experiment: Stimulatory capacity of ORN with PTO or PD backbone in murine cells; assay type: cell-based; conditions: TLR7-independent fashion
# Description: as §1
# [3] = test system: TLR9-deficient mDC; experiment: IL-12p40 production by TLR9-deficient mDC; assay type: cell-based, murine
# Description: as §1
# [4] = test system: pDC, TLR9-single deficient cells; experiment: Recognition of ssRNA by pDC, TLR9-single deficient cells; assay type: cell-based, murine
# Description: as §1
# [5] = test system: pDC, TLR7-single deficient cells; experiment: Recognition of ssRNA by pDC, TLR7-single deficient cells; assay type: cell-based, murine
# Description: as §1
# [6] = test system: pDC, wild-type cells; experiment: Recognition of ssRNA by pDC, wild-type cells; assay type: cell-based, murine; conditions: for Recognition by pDC: wild-type cells
# Description: as §1
# [7] = test system: Wild-type FLT3-L-induced DCs; experiment: IL-12 secretion of siRNA-treated wild-type FLT3-L-induced DCs on ssRNA stimulation; assay type: cell-based, murine; conditions: wild-type FLT3-L-induced DCs treated with mTLR8-specific siRNA; for reduction in IL-12 secretion in mTLR8-specific siRNA-treated cells: then stimulated with the ORN
# Description: (§2) The reduction in RNA63-driven immune activation correlated with siRNA-driven downregulation of mTLR8 RNA.
# [8] = test system: murine cells; conditions: synthesized with a PTO backbone; Heil, Hemmi et al. 2004; cited from earlier work
# [9] = test system: TLR7/TLR9 double deficient GM-CSF-derived DCs; experiment: ssRNA stimulation of TLR7/TLR9 double deficient GM-CSF-derived DCs; assay type: cell-based, mice
# Description: (§3) Since the ssRNA-driven TLR7-independent immune stimulation is dependent on MyD88 and endosomal maturation, it was hypothesized that other intracellular TLRs are involved. TLR3 seems a poor candidate for the recognition of ssRNA since it mainly relies on the adaptor molecule TRIF and not MyD88 (Hoebe, Du et al. 2003). Nevertheless, to rule out TLR3 as receptor for ssRNA, TLR3- and TLR7-deficient mice were crossed to obtain TLR3/TLR7 double deficient mice, and immune cells from these mice were tested for ssRNA stimulation. […] TLR7/TLR9 double deficient mice were also generated to investigate the involvement of TLR9 in RNA63 recognition.
# [10] = test system: TLR3/TLR7 double deficient FLT3-L-induced DCs; experiment: ssRNA stimulation of TLR3/TLR7 double deficient FLT3-L-induced DCs; assay type: cell-based, mice
# Description: as §3
# [11] = test system: TLR7/TLR9 double deficient sorted mDCs; experiment: ssRNA stimulation of TLR7/TLR9 double deficient sorted mDCs; assay type: cell-based, mice
# Description: as §3
# [12] = test system: TLR7-deficient FLT3-L-induced DCs; experiment: RNA63-induced activation of siRNA-transfected TLR7-deficient FLT3-L-induced DCs; assay type: cell-based, murine
# Description: as §2
# [13] = test system: TLR7−/− GM-CSF-derived dendritic cells; experiment: IL-12p40 ELISA, GM-CSF-derived dendritic cells, TLR7−/−; assay type: cell-based, mice; conditions: with DOTAP, 24 hours, FIG. 5
# Method: (§4) M-CSF-derived macrophages and GM-CSF-derived dendritic cells were prepared from wild-type and TLR7−/− mice and cultured for 24 hours in the presence of RNA63 PD plus DOTAP, RNA63 PTO plus DOTAP. LPS, R-848, CpG-ODN 1668, CpG-ODN 2216, DOTAP alone, or medium alone. Culture supernatants were then collected and analyzed using ELISA for IL-12p40. Data are presented as mean±SEM.
# [14] = test system: TLR7−/− FLT3-L-induced dendritic cells; experiment: Cytokine ELISA (IL-12p40, IL-6, IFN-α), FLT3-L-induced dendritic cells, TLR7−/−; assay type: cell-based, mice; conditions: for IFN-α induction / IL-6 induction / IL-12p40 induction: with DOTAP, 24 hours
# Method: (§5) FLT3-L-induced dendritic cells were prepared from wild-type and TLR7−/− mice and cultured in the presence of varied amounts of RNA63 PD or RNA63 PTO, each with DOTAP. After 24 hours incubation, supernatants were collected and analyzed by ELISA for IL-12p40, IL-6, and IFN-α. LPS, R-848, CpG-ODN 1668, CpG-ODN 2216 (5′-GGGGGACGATCGTCGGGGG-3′, SEQ ID NO:3), DOTAP alone, and medium alone were run as controls. Data are presented as mean±SEM.
# [15] = test system: wild-type FLT3-L-induced dendritic cells; experiment: Cytokine ELISA (IL-12p40, IL-6, IFN-α), FLT3-L-induced dendritic cells, wild-type; assay type: cell-based, mice; conditions: with DOTAP, 24 hours; for IL-12p40 induction: FIG. 3A; for IL-6 induction: FIG. 3B; for IFN-α induction: FIG. 3C
# Method: as §5
# [16] = test system: peripheral blood mononuclear cells from TLR7−/− mice; experiment: IL-12p40 ELISA on supernatants of peripheral blood mononuclear cells, TLR7−/− mice; assay type: cell-based; conditions: TLR 7−/− cells, added with DOTAP, 24 hours, FIG. 2
# Method: (§6) Peripheral blood mononuclear cells were isolated from wild-type and TLR7−/− mice, transferred into suitable growth medium, and then aliquoted separately into individual wells of multiwell culture plates. The following agents were added to individual wells of cells: RNA63 PD, a single-stranded ORN having a nucleotide sequence provided as 5′-CAGGUCUGUGAU-3′ (SEQ ID NO:1), in which all internucleotide linkages are phosphodiester except for a phosphorothioate linkage between the A and U at the 3′ end of the ORN; RNA63 PTO, a single-stranded ORN having the same nucleotide sequence as SEQ ID NO: 1, in which every internucleotide linkage is phosphorothioate; CpG-ODN 1668, an oligodeoxynucleotide having a nucleotide sequence provided as 5′-[…]-3′ (SEQ ID NO:2); DOTAP alone; R-848; RNA63 PTO plus DOTAP; RNA63 PD plus DOTAP; and medium alone. Cells were maintained in culture for 24 hours, and then supernatants from individual wells collected and analyzed using enzyme-linked immunosorbent assay (ELISA) specific for IL-12p40. Data are presented as mean±SEM.
# [17] = test system: TLR7−/− FLT3-L-induced dendritic cells; experiment: FACS for CD69 on FLT3-L-induced dendritic cells, TLR7−/−; assay type: cell-based, mice; conditions: with DOTAP, 24 hours, FIG. 4
# Method: (§7) FLT3-L-induced dendritic cells were prepared from wild-type and TLR7−/− mice and cultured for 24 hours in the presence of RNA63 PD or RNA63 PTO, each with DOTAP, as in Example 2. After 24 hours incubation, cells were collected and analyzed by FACS for CD69.
# [18] = test system: peripheral blood mononuclear cells from wild-type mice; experiment: IL-12p40 ELISA on supernatants of peripheral blood mononuclear cells, wild-type mice; assay type: cell-based; conditions: added with DOTAP, 24 hours, FIG. 2
# Method: as §6
# [19] = test system: M-CSF-derived macrophages from wild-type mice; experiment: IL-12p40 ELISA, M-CSF-derived macrophages, wild-type; assay type: cell-based; conditions: with DOTAP, 24 hours, FIG. 5
# Method: as §4
# [20] = test system: MyD88−/− dendritic cells; experiment: FACS for CD69, FLT3-L-induced dendritic cells, MyD88−/−; assay type: cell-based, mice; conditions: with DOTAP, 24 hours, FIG. 6
# Method: (§8) FLT3-L-induced dendritic cells were separately prepared from wild-type, TLR7−/−, and MyD88−/− mice and cultured for 24 hours in the presence of RNA63 PD or RNA63 PTO, each with DOTAP, as in Example 2. After 24 hours incubation, cells were collected and analyzed by ELISA for IL-12p40 and by FACS for CD69.
# [21] = test system: wild-type FLT3-L-induced dendritic cells; experiment: FACS for CD69 on FLT3-L-induced dendritic cells, wild-type; assay type: cell-based, mice; conditions: with DOTAP, 24 hours, FIG. 4
# Method: as §7
# [22] = test system: MyD88−/− dendritic cells; experiment: IL-12p40 ELISA, FLT3-L-induced dendritic cells, MyD88−/−; assay type: cell-based, mice; conditions: with DOTAP, 24 hours, FIG. 6
# Method: as §8
# [23] = test system: TLR7−/− M-CSF-derived macrophages; experiment: IL-12p40 ELISA, M-CSF-derived macrophages, TLR7−/−; assay type: cell-based, mice; conditions: with DOTAP, 24 hours, FIG. 5
# Method: as §4
# [24] = test system: GM-CSF-derived dendritic cells from wild-type mice; experiment: IL-12p40 ELISA, GM-CSF-derived dendritic cells, wild-type; assay type: cell-based; conditions: with DOTAP, 24 hours, FIG. 5
# Method: as §4
# [25] = test system: TLR7-deficient mDC; experiment: IL-12p40 production by TLR7-deficient mDC; assay type: cell-based, murine; conditions: TLR7-single deficient mDC
# Description: as §1
substance,measurement,setting,value
"5′-ACCCAUCUAUUAUAUAACUC-3′ (listed as RNA, chemistry not fully specified) [RNA42 PD]",IFN-α stimulation,[1],no IFN-α
same,TNF-α stimulation,[1],stimulate
same,IFN-α stimulation,[2],stimulate
same,IL-6 stimulation,[2],stimulate
same,IL-12p40 stimulation,[2],stimulate
same,IL-12p40 production,[3],failed to produce IL-12p40
"5′-ACCCAUCUAUUAUAUAACUC-3′ (listed as RNA, chemistry not fully specified) [RNA42, PTO in the cited result, probably PD in pDC and siRNA tests]",Response of pDC,[4],failed to respond
same,Response of pDC,[5],failed to respond
same,Recognition by pDC,[6],also recognized
same,reduction in IL-12 secretion in mTLR8-specific siRNA-treated cells,[7],50%
same,Activity in murine cells,[8],not active
"5′-CAGGUCUGUGAU-3′ (listed as RNA, chemistry not fully specified) [RNA63]",CD69 upregulation,[9],failed
same,IL-12p40 production,[9],failed to produce IL-12p40
same,RNA63-driven CD69 upregulation,[10],still functional
same,RNA63-driven IL-12p40 production,[10],still functional
same,CD69 upregulation,[11],failed
same,IL-12p40 production,[11],failed to produce IL-12p40
same,RNA63-induced IL-12p40 production in DCs treated with mTLR8-specific siRNA,[12],strong reduction
same,activation markers such as CD40 in DCs treated with mTLR8-specific siRNA,[12]; RNA63 stimulation,downregulation
"5′-CAGGUCUGUGAU-3′ [RNA63 PD] (one 3' phosphorothioate linkage, chemistry not fully specified)",IL-12p40 induction,[13],induced significant amounts of IL-12p40
same,Dependence of the amount of IL-12p40 induced on concentration,[14]; varied amounts of ORN with DOTAP,varied in proportion to the concentration
same,IFN-α induction,[14],albeit less strongly
same,IL-6 induction,[14],albeit less strongly
same,IL-12p40 induction,[14],induced IL-112p40
same,IL-12p40 induction,[15],induced significant amounts
same,IL-6 induction,[15],induced significant amounts
same,IFN-α induction,[15],induced significant amounts
same,IL-12p40 induction,[16],induced IL-12p40
same,CD69 induction,[17],induced CD69
same,IL-12p40 induction,[18],induced IL-12p40
same,IL-12p40 induction,[19],induced significant amounts of IL-12p40
same,induction of CD69,[20],absent
same,CD69 induction,[21],induced significant amounts of CD69
same,induction of IL-12p40,[22],absent
same,IL-12p40 induction,[23],induced significant amounts of IL-12p40
same,IL-12p40 induction,[24],induced significant amounts of IL-12p40
5′-CAGGUCUGUGAU-3′ [RNA63 PTO] (rC*rA*rG*rG*rU*rC*rU*rG*rU*rG*rA*rU) [reference compound],IL-12p40 induction,[13],not
same,IFN-α induction,[14],not
same,IL-6 induction,[14],not
same,IL-12p40 induction,[14],not
same,IL-12p40 induction,[15],induced significant amounts
same,IL-6 induction,[15],induced significant amounts
same,IFN-α induction,[15],induced significant amounts
same,IL-12p40 induction,[16],not
same,CD69 induction,[17],not
same,IL-12p40 induction,[18],induced IL-12p40
same,IL-12p40 induction,[19],induced significant amounts of IL-12p40
same,induction of CD69,[20],absent
same,CD69 induction,[21],induced significant amounts of CD69
same,induction of IL-12p40,[22],absent
same,IL-12p40 induction,[23],not
same,IL-12p40 induction,[24],induced significant amounts of IL-12p40
"5′-GCCCGACAGAAGAGAGACAC-3′ (listed as RNA, chemistry not fully specified) [RNA41 PD]",IFN-α stimulation,[1],no IFN-α
same,TNF-α stimulation,[1],stimulate
same,IFN-α stimulation,[2],stimulate
same,IL-6 stimulation,[2],stimulate
same,IL-12p40 stimulation,[2],stimulate
same,IL-12p40 production,[3],failed to produce IL-12p40
"5′-GCCCGACAGAAGAGAGACAC-3′ (listed as RNA, chemistry not fully specified) [RNA41, PTO in the cited result, probably PD in pDC and siRNA tests]",Response of pDC,[4],failed to respond
same,Response of pDC,[5],failed to respond
same,Recognition by pDC,[6],also recognized
same,reduction in IL-12 secretion in mTLR8-specific siRNA-treated cells,[7],75%
same,Activity in murine cells,[8],not active
"5′-GCCCGUCUGUUGUGUGACUC-3′ [RNA40, reference compound]",IL-12p40 production,[25],induced some IL-12p40
same,TLR dependence of recognition by pDC,[6]; GU-rich RNA,TLR7-dependent fashion
same,Influence of mTLR8-specific siRNA on stimulation,[7],not influenced
same,IL-12p40 production,[3],induced some IL-12p40
